Measured values as given in ChEMBL document CHEMBL2203046, “Discovery of a novel non-steroidal GR antagonist with in vivo efficacy in the olanzapine-induced weight gain model in the rat” (Bioorg Med Chem Lett, 2012).

Experiments:
[1] = target: T1, Glucocorticoid receptor (Homo sapiens, UniProt P04150); experiment: Displacement of [3H]dexamethasone from human recombinant glucocorticoid receptor expressed in baculovirus after 18 hrs by scintillation counting analysis
T1 sequence (P04150 whole entry): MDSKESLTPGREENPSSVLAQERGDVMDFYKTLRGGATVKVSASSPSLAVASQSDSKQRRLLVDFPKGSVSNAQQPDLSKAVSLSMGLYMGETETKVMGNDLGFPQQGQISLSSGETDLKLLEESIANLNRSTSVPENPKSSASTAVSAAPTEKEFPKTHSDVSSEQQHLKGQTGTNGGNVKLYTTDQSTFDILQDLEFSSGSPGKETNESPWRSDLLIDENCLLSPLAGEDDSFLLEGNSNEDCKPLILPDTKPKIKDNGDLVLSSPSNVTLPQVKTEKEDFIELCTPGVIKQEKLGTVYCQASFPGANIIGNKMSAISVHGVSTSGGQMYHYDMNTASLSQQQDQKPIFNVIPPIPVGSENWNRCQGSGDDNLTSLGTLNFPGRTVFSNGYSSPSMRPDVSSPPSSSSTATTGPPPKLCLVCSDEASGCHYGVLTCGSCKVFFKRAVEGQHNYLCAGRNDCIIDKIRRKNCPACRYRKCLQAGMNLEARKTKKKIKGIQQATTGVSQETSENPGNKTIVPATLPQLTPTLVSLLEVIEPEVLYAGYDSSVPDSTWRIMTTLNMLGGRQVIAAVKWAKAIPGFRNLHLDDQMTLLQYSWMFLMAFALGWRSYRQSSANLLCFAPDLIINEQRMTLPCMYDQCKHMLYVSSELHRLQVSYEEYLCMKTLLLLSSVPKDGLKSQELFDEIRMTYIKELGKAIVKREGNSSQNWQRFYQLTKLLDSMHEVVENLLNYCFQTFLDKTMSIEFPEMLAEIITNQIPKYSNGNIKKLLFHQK

[2] = target: T1, Glucocorticoid receptor; experiment: Antagonist activity at glucocorticoid receptor in human SW1353 cells assessed as inhibition of dexamethasone-induced luciferase expression after 16 hrs by MMTV5 reporter gene assay; format: functional, cell-based
[3] = Half life in rat at 1 mg/kg, iv; format: ADME, organism-based; set-up: dose 1 mg/kg, route intravenous; conditions: in vivo
[4] = Clearance in rat at 1 mg/kg, iv; format: ADME, organism-based; set-up: dose 1 mg/kg, route intravenous; conditions: in vivo
[5] = system: Liver microsomes; experiment: Metabolic stability in rat liver microsomes; format: ADME, Microsome
[6] = target: Cytochrome P450 2C19 (Homo sapiens, UniProt P33261); experiment: Inhibition of human CYP2C19; format: ADME
Sequence of Cytochrome P450 2C19 (P33261 whole entry): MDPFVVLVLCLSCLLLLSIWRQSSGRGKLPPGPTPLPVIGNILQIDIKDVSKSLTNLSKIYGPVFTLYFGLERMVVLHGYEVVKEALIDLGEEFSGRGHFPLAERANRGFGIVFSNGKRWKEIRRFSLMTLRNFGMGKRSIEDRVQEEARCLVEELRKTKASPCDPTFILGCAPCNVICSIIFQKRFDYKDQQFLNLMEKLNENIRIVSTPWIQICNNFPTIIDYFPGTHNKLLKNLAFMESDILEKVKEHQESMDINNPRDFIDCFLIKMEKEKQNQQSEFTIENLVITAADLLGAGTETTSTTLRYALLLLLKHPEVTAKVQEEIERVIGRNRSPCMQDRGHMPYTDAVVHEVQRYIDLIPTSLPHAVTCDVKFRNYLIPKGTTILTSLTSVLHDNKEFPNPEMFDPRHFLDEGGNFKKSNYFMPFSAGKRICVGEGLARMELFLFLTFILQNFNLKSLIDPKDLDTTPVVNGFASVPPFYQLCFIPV

[7] = system: Rattus norvegicus; experiment: Antagonist activity at glucocorticoid receptor in Sprague-Dawley rat assessed as change in olanzapine-induced weight gain at 0.6 mg/kg/day, po administered as divided doses twice daily for 21 days (Rvb =+ 36.5 +/- 10 g); format: functional
[8] = target: Cytochrome P450 2D6 (Homo sapiens, UniProt P10635); experiment: Inhibition of human CYP2D6; format: ADME
Sequence of Cytochrome P450 2D6 (P10635 whole entry): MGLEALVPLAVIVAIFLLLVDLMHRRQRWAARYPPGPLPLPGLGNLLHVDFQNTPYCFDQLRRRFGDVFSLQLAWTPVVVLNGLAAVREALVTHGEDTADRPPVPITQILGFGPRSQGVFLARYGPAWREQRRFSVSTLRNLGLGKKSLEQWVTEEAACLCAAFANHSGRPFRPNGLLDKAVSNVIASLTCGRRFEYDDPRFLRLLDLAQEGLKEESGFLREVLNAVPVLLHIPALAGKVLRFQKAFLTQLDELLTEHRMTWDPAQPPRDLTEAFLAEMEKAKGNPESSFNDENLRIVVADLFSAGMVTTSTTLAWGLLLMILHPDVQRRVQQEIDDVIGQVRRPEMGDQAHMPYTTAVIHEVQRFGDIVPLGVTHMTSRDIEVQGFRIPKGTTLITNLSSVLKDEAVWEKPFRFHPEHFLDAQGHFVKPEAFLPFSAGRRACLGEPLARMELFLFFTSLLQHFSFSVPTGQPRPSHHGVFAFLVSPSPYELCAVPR

[9] = Plasma protein binding in rat; format: ADME, cell-free; conditions: read-out: PPB
[10] = target: Cytochrome P450 2C9 (Homo sapiens, UniProt P11712); experiment: Inhibition of human CYP2C9; format: ADME
Sequence of Cytochrome P450 2C9 (P11712 whole entry): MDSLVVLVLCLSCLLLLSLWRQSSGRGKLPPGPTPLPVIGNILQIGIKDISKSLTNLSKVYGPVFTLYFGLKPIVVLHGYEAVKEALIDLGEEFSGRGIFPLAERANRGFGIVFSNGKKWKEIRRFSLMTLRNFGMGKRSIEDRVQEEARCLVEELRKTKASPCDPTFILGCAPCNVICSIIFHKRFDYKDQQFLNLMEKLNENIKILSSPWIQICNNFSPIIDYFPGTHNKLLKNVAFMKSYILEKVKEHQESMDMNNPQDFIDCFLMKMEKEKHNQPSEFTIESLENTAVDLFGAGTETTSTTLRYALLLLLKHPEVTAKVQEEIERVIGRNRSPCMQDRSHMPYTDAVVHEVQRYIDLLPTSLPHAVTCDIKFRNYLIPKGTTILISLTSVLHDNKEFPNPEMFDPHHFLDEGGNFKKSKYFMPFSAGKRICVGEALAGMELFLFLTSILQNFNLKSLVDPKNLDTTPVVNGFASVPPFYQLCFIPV

[11] = target: T2, Cytochrome P450 1A2 (Homo sapiens, UniProt P05177); experiment: Inhibition of human CYP1A2; format: ADME
T2 sequence (P05177 whole entry): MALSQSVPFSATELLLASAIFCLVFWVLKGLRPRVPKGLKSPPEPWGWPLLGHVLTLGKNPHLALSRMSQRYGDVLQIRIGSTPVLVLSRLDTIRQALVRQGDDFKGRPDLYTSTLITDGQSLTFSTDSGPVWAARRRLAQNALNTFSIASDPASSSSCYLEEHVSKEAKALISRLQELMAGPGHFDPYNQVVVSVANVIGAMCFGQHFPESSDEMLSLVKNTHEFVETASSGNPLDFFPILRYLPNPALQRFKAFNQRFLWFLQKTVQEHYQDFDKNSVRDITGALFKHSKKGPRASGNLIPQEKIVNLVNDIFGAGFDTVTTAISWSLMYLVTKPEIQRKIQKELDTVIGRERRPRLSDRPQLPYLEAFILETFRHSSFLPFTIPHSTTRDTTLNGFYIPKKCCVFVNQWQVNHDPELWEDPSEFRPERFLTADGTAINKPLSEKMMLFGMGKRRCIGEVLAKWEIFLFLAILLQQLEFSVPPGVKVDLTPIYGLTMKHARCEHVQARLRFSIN

[12] = system: Liver microsomes; experiment: Metabolic stability in human liver microsomes; format: ADME, Microsome
[13] = target: Cytochrome P450 3A4 (Homo sapiens, UniProt P08684); experiment: Inhibition of human CYP3A4; format: ADME
Sequence of Cytochrome P450 3A4 (P08684 whole entry): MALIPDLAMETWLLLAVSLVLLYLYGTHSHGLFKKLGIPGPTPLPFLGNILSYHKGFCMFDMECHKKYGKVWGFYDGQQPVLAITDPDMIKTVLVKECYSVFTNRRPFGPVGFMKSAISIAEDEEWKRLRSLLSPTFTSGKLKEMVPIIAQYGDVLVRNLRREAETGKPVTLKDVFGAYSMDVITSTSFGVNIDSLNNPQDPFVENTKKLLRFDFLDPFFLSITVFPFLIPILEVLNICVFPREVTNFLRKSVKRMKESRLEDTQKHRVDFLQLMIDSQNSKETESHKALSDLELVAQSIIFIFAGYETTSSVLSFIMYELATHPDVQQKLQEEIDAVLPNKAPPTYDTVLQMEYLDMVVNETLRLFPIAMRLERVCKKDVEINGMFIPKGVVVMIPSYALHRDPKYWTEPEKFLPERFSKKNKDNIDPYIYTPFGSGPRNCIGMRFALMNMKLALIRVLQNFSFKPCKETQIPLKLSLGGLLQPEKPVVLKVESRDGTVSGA

[14] = system: Rattus norvegicus; experiment: Antagonist activity at glucocorticoid receptor in Sprague-Dawley rat assessed as change in olanzapine-induced weight gain at 10 mg/kg/day, po administered as divided doses twice daily for 21 days (Rvb =+ 36.5 +/- 10 g); format: functional
[15] = system: Rattus norvegicus; experiment: Antagonist activity at glucocorticoid receptor in Sprague-Dawley rat assessed as change in olanzapine-induced weight gain at 6 mg/kg/day, po administered as divided doses twice daily for 21 days (Rvb =+ 36.5 +/- 10 g); format: functional
[16] = system: Rattus norvegicus; experiment: Antagonist activity at glucocorticoid receptor in Sprague-Dawley rat assessed as change in olanzapine-induced weight gain at 2 mg/kg/day, po administered as divided doses twice daily for 21 days (Rvb =+ 36.5 +/- 10 g); format: functional
[17] = Oral bioavailability in rat at 5 mg/kg; format: ADME, organism-based; conditions: in vivo
[18] = Plasma protein binding in human; format: ADME, cell-free; conditions: read-out: PPB
[19] = system: Rattus norvegicus; experiment: Antagonist activity at glucocorticoid receptor in Sprague-Dawley rat assessed as change in olanzapine-induced weight gain at 0.2 mg/kg/day, po administered as divided doses twice daily for 21 days (Rvb =+ 36.5 +/- 10 g); format: functional
[20] = system: Liver; experiment: Metabolic stability in human liver microsomes

Structure (SMILES)	Ki [1]	Ki [2]	also measured
COCCn1c(=O)[nH]c([C@H]2CC[C@@H](c3ccccc3)CC2)c(Cc2cccc(C(F)(F)F)c2)c1=O	> 50 nM	–	–
O=c1[nH]c(=O)c(Cc2ccccc2)c([C@H]2CC[C@H](c3ccccc3)CC2)[nH]1	4 nM	44 nM	–
O=c1[nH]c(=O)c(Cc2ccccc2)c([C@H]2CC[C@@H](c3ccccc3)CC2)[nH]1	32 nM	–	–
Cc1cccc(Cc2c(=O)[nH]c(=O)[nH]c2[C@H]2CC[C@@H](c3ccccc3)CC2)c1	3 nM	21 nM	–
CCc1ccccc1Cc1c(=O)[nH]c(=O)[nH]c1[C@H]1CC[C@@H](c2ccccc2)CC1	19 nM	78 nM	–
O=c1[nH]c(=O)c(Cc2ccccc2Cl)c([C@H]2CC[C@@H](c3ccccc3)CC2)[nH]1	7 nM	37 nM	–
O=c1[nH]c(=O)c(Cc2cccc(C(F)(F)F)c2)c([C@H]2CC[C@@H](c3ccccc3)CC2)[nH]1	8 nM	24 nM	half-life [3]: 1.8 h; clearance [4]: 22 mL/min/kg; Stability [5]: Stable; inhibition (INH) [6]: Not Active; Activity [7]: 9.8 g; inhibition (INH) [8]: Not Active; fraction unbound [9]: < 0.001; inhibition (INH) [10]: Not Active; inhibition (INH) [11]: Not Active; Stability [12]: Stable; inhibition (INH) [13]: Not Active; Activity [14]: -23.7 g; Activity [15]: -23.6 g; Activity [16]: -10.2 g; bioavailability [17]: 20%; fraction unbound [18]: < 0.001; Activity [19]: 25.6 g
CS(=O)(=O)c1ccccc1Cc1c(=O)[nH]c(=O)[nH]c1[C@H]1CC[C@@H](c2ccccc2)CC1	557 nM	–	–
COc1ccccc1Cc1c(=O)[nH]c(=O)[nH]c1[C@H]1CC[C@@H](c2ccccc2)CC1	9 nM	56 nM	–
O=c1[nH]c(=O)c(Cc2cc(Cl)ccc2Cl)c([C@H]2CC[C@@H](c3ccccc3)CC2)[nH]1	8 nM	23 nM	–
O=c1[nH]c(=O)c(Cc2cccc(Cl)c2Cl)c([C@H]2CC[C@@H](c3ccccc3)CC2)[nH]1	5 nM	25 nM	–
O=c1[nH]c(=O)c(Cc2ccc(Cl)cc2Cl)c([C@H]2CC[C@@H](c3ccccc3)CC2)[nH]1	11 nM	44 nM	–
O=c1[nH]c(=O)c(Cc2c(Cl)cccc2Cl)c([C@H]2CC[C@@H](c3ccccc3)CC2)[nH]1	11 nM	67 nM	–
O=c1[nH]c(=O)c(Cc2ccccn2)c([C@H]2CC[C@@H](c3ccccc3)CC2)[nH]1	188 nM	337 nM	–
O=c1[nH]c(=O)c(Cc2ncccn2)c([C@H]2CC[C@@H](c3ccccc3)CC2)[nH]1	400 nM	> 3000 nM	–
O=c1[nH]c(=O)c(Cc2ncccc2Cl)c([C@H]2CC[C@@H](c3ccccc3)CC2)[nH]1	49 nM	116 nM	–
Cc1cc(Cc2c(=O)[nH]c(=O)[nH]c2[C@H]2CC[C@@H](c3ccccc3)CC2)ccn1	> 50 nM	> 3000 nM	–
O=c1[nH]c(=O)c(Cc2nccs2)c([C@H]2CC[C@@H](c3ccccc3)CC2)[nH]1	139 nM	> 300 nM	–
Cc1csc(Cc2c(=O)[nH]c(=O)[nH]c2[C@H]2CC[C@@H](c3ccccc3)CC2)n1	28 nM	119 nM	–
Cn1nccc1Cc1c(=O)[nH]c(=O)[nH]c1[C@H]1CC[C@@H](c2ccccc2)CC1	> 1500 nM	> 3000 nM	–
Cc1cccc(Cc2c(=O)[nH]c(=O)[nH]c2[C@H]2CC[C@@H](c3ccccc3)CC2)n1	22 nM	57 nM	–
O=c1[nH]c(=O)c(Cc2cccc(C(F)(F)F)n2)c([C@H]2CC[C@@H](c3ccccc3)CC2)[nH]1	18 nM	47 nM	–
Cc1ccnc(Cc2c(=O)[nH]c(=O)[nH]c2[C@H]2CC[C@@H](c3ccccc3)CC2)c1	21 nM	44 nM	–
Cn1c(=O)[nH]c([C@H]2CC[C@@H](c3ccccc3)CC2)c(Cc2ccccc2)c1=O	24 nM	57 nM	–
Cc1cccc(Cc2c(=O)n(C)c(=O)[nH]c2[C@H]2CC[C@@H](c3ccccc3)CC2)c1	19 nM	39 nM	–
Cc1cccc(Cc2c(=O)n(CCN(C)C)c(=O)[nH]c2[C@H]2CC[C@@H](c3ccccc3)CC2)c1	9 nM	> 300 nM	–
Cn1c(=O)[nH]c([C@H]2CC[C@@H](c3ccccc3)CC2)c(Cc2cccc(C(F)(F)F)c2)c1=O	16 nM	162 nM	–
O=c1[nH]c([C@H]2CC[C@@H](c3ccccc3)CC2)c(Cc2cccc(C(F)(F)F)c2)c(=O)n1CCO	98 nM	> 3000 nM	–
O=c1[nH]c(N2CCC(c3ccccc3)CC2)c(Cc2ccccc2)c(=O)[nH]1	8 nM	–	Stability [20]: Stable; inhibition (INH) [6]: Not Active; inhibition (INH) [8]: Not Active; inhibition (INH) [10]: Not Active; inhibition (INH) [11]: Not Active; inhibition (INH) [13]: Not Active
